Measurements from patent US5112852A, “Allenyl amines” (Merrell Dow Pharmaceuticals Inc., priority 1989, dated 1992).

Experiments:
[1] = tested on: dopamine-β-hydroxylase (DBH); assay: DBH inhibitory activity in vitro (time-dependent inactivation; oxygen uptake with tyramine substrate); assay type: biochemical; settings: 1 mM, pH 4.5 to 5.5, preferably pH 5.0, 20-40° C., preferably 37° C., spread +/-1.1
Protocol: The DBH inhibitory properties of the compounds of this invention can readily be determined by standard and well known procedures such as those procedures set forth in U.S. Pat. No. 4,415,591. […] The test compound is added at the desired concentration, and the system is incubated. At different time intervals aliquots are taken and DBH activity is measured using tyramine as the substrate. The reaction is followed by measuring oxygen uptake using a polarographic electrode and an oxygen monitor by the method of S. May, et al., J. Biol. Chem. 256, 2258 (1981).

[2] = tested on: hypertensive rats; assay: Antihypertensive activity in vivo, conscious hypertensive rats, mean blood pressure; settings: 50 mg/kg (ip)
Protocol: The ability of compounds of this invention to lower blood pressure can be determined in vivo using hypertensive rats according to standard and well known procedures. The test compound is administered intraperitoneally (ip) to conscious rats and the blood pressure monitored continuously. Decreased mean blood pressure over time was observed when a compound of this invention was tested by the above described procedure, as indicated in Table II.

C=C=C(CN)c1cccs1 [β-ethenylidene-2-thiopheneethanamine, β-Ethenylidene-2-thiopheneethanamine]
t 1/2 (time required for 50% inhibition) [1]: 1.3 h | Maximum % Change in mean Blood Pressure ([2]; decrease per text): 15.6% | Duration ([2]; duration of blood pressure change): 10 h
